Experimental data: PubChem BioAssay (NCI)
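1) Cells in 96-well plates. 2) Compound, 48 h, 5 concentrations. 3) Linear interpolation between surrounding doses. 4) Unreached endpoint = highest concentration. TGI denotes the concentration required for complete inhibition of growth.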

How the values were obtained:
Assay in all cases: NCI-60 cell line screen, 48 h
CAKI-1 renal = tested on: CAKI-1 renal
EKVX NSCLC = tested on: EKVX NSCLC
HCT-116 colon = tested on: HCT-116 colon
HOP-92 NSCLC = tested on: HOP-92 NSCLC
HS 578T breast = tested on: HS 578T breast
HT29 colon = tested on: HT29 colon
IGROV1 ovarian = tested on: IGROV1 ovarian
K-562 leukemia = tested on: K-562 leukemia
KM12 colon = tested on: KM12 colon
MOLT-4 leukemia = tested on: MOLT-4 leukemia
NCI-H522 lung = tested on: NCI-H522 lung
OVCAR-3 ovarian = tested on: OVCAR-3 ovarian
OVCAR-8 ovarian = tested on: OVCAR-8 ovarian
PC-3 prostate = tested on: PC-3 prostate
SF-268 CNS = tested on: SF-268 CNS
SK-MEL-2 melanoma = tested on: SK-MEL-2 melanoma
SNB-19 CNS = tested on: SNB-19 CNS
T-47D breast = tested on: T-47D breast
TK-10 renal = tested on: TK-10 renal
RPMI-8226 leukemia = tested on: RPMI-8226 leukemia

## Cc1cc(=O)[nH]c2cc(NC(=O)C(CCCN=C(N)N)NC(=O)OCc3ccccc3)ccc12 (stereo not drawn)
CAKI-1 renal
  TGI: > 100 µM
EKVX NSCLC
  TGI: > 100 µM
HCT-116 colon
  TGI: > 100 µM
HOP-92 NSCLC
  TGI: > 100 µM
HS 578T breast
  TGI: > 100 µM
HT29 colon
  TGI: > 100 µM
IGROV1 ovarian
  TGI: > 100 µM
K-562 leukemia
  TGI: > 100 µM
KM12 colon
  TGI: > 100 µM
MOLT-4 leukemia
  TGI: > 100 µM
NCI-H522 lung
  TGI: > 100 µM
OVCAR-3 ovarian
  TGI: > 100 µM
OVCAR-8 ovarian
  TGI: > 100 µM
PC-3 prostate
  TGI: > 100 µM
SF-268 CNS
  TGI: > 100 µM
SK-MEL-2 melanoma
  TGI: > 100 µM
SNB-19 CNS
  TGI: > 100 µM
T-47D breast
  TGI: > 100 µM
TK-10 renal
  TGI: > 100 µM

## Nn1c(CCCCCCCCc2nnc(COc3ccccc3)n2N)nnc1COc1ccccc1
CAKI-1 renal
  TGI: > 100 µM
EKVX NSCLC
  TGI: > 100 µM
HCT-116 colon
  TGI: > 100 µM
HOP-92 NSCLC
  TGI: > 100 µM
HS 578T breast
  TGI: > 100 µM
HT29 colon
  TGI: > 100 µM
IGROV1 ovarian
  TGI: > 100 µM
K-562 leukemia
  TGI: > 100 µM
KM12 colon
  TGI: > 100 µM
MOLT-4 leukemia
  TGI: > 100 µM
NCI-H522 lung
  TGI: > 100 µM
OVCAR-8 ovarian
  TGI: > 100 µM
PC-3 prostate
  TGI: > 100 µM
RPMI-8226 leukemia
  TGI: > 100 µM
SF-268 CNS
  TGI: > 100 µM
SK-MEL-2 melanoma
  TGI: > 100 µM
SNB-19 CNS
  TGI: > 100 µM
T-47D breast
  TGI: > 100 µM
TK-10 renal
  TGI: > 100 µM

## COC1(OC)N=C(N)C2(C#N)C3(C(=O)N(C(C)C)N=C3C)C12C#N (stereo not drawn)
CAKI-1 renal
  TGI: > 100 µM
EKVX NSCLC
  TGI: > 100 µM
HCT-116 colon
  TGI: > 100 µM
HOP-92 NSCLC
  TGI: > 100 µM
HT29 colon
  TGI: > 100 µM
IGROV1 ovarian
  TGI: > 100 µM
K-562 leukemia
  TGI: > 100 µM
KM12 colon
  TGI: > 100 µM
MOLT-4 leukemia
  TGI: > 100 µM
NCI-H522 lung
  TGI: > 100 µM
OVCAR-3 ovarian
  TGI: > 100 µM
OVCAR-8 ovarian
  TGI: > 100 µM
PC-3 prostate
  TGI: > 100 µM
RPMI-8226 leukemia
  TGI: > 100 µM
SF-268 CNS
  TGI: > 100 µM
SK-MEL-2 melanoma
  TGI: > 100 µM
SNB-19 CNS
  TGI: > 100 µM
T-47D breast
  TGI: > 100 µM

## O=c1oc2ccccc2c(O)c1/C=N/C(=S)NCc1ccccc1
CAKI-1 renal
  TGI: 63.7 µM
EKVX NSCLC
  TGI: > 100 µM
HCT-116 colon
  TGI: > 100 µM
HOP-92 NSCLC
  TGI: > 100 µM
HT29 colon
  TGI: > 100 µM
IGROV1 ovarian
  TGI: > 100 µM
KM12 colon
  TGI: > 100 µM
MOLT-4 leukemia
  TGI: > 100 µM
OVCAR-3 ovarian
  TGI: > 100 µM
OVCAR-8 ovarian
  TGI: > 100 µM
PC-3 prostate
  TGI: > 100 µM
SK-MEL-2 melanoma
  TGI: > 100 µM
SNB-19 CNS
  TGI: > 100 µM
T-47D breast
  TGI: > 100 µM
TK-10 renal
  TGI: 51.8 µM

## C[n+]1c2ccccc2n2c3ccccc3c(NCCc3ccccn3)c(C#N)c21
CAKI-1 renal
  TGI: 6.68 µM
EKVX NSCLC
  TGI: 19.5 µM
HCT-116 colon
  TGI: 11.8 µM
HOP-92 NSCLC
  TGI: > 100 µM
HS 578T breast
  TGI: 12.1 µM
HT29 colon
  TGI: > 100 µM
K-562 leukemia
  TGI: > 100 µM
KM12 colon
  TGI: 29 µM
MOLT-4 leukemia
  TGI: > 22.5 µM
NCI-H522 lung
  TGI: 3.95 µM
OVCAR-3 ovarian
  TGI: > 25.7 µM
PC-3 prostate
  TGI: 23.9 µM
SF-268 CNS
  TGI: > 22.4 µM
SK-MEL-2 melanoma
  TGI: 7.73 µM
SNB-19 CNS
  TGI: > 26.8 µM
T-47D breast
  TGI: 13.7 µM
TK-10 renal
  TGI: 7.88 µM

## CN(C)CC1CCC/C(=C\c2ccc(OC(=O)/C=C/c3ccccc3)cc2)C1=O (stereo not drawn)
CAKI-1 renal
  TGI: 3.38 µM
EKVX NSCLC
  TGI: 4.89 µM
HCT-116 colon
  TGI: 2.8 µM
HOP-92 NSCLC
  TGI: 4.65 µM
HS 578T breast
  TGI: 13.1 µM
HT29 colon
  TGI: 3.75 µM
IGROV1 ovarian
  TGI: 14 µM
K-562 leukemia
  TGI: > 42.6 µM
KM12 colon
  TGI: 3.44 µM
MOLT-4 leukemia
  TGI: > 37.1 µM
OVCAR-3 ovarian
  TGI: 3.63 µM
OVCAR-8 ovarian
  TGI: 3.9 µM
PC-3 prostate
  TGI: 19.5 µM
RPMI-8226 leukemia
  TGI: 6.88 µM
SF-268 CNS
  TGI: 8.67 µM
SK-MEL-2 melanoma
  TGI: 7.79 µM
SNB-19 CNS
  TGI: 20.7 µM
T-47D breast
  TGI: 2.58 µM
TK-10 renal
  TGI: 3.76 µM

## Cc1ccc(N=C2S/C(=C3/CCC=C3N3CCOCC3)N(c3ccc(Cl)cc3)C2=Nc2ccc(C)cc2)cc1
EKVX NSCLC
  TGI: > 100 µM
HCT-116 colon
  TGI: > 100 µM
HOP-92 NSCLC
  TGI: > 100 µM
HS 578T breast
  TGI: > 100 µM
HT29 colon
  TGI: > 100 µM
IGROV1 ovarian
  TGI: > 100 µM
K-562 leukemia
  TGI: > 100 µM
KM12 colon
  TGI: > 100 µM
MOLT-4 leukemia
  TGI: > 100 µM
OVCAR-8 ovarian
  TGI: > 100 µM
PC-3 prostate
  TGI: > 100 µM
RPMI-8226 leukemia
  TGI: > 100 µM
SK-MEL-2 melanoma
  TGI: > 100 µM
SNB-19 CNS
  TGI: > 100 µM
T-47D breast
  TGI: > 100 µM
TK-10 renal
  TGI: > 100 µM
